Assay results: PubChem BioAssay AID1645868 (Buhrlage Lab, Dana-Farber Cancer Institute and Novartis …, 2021)
The source made the active and inactive calls.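 Rule for the calls: active = maximal percent inhibition of the deubiquitinase OTUD3 of at least 30% across the tested doses; inactive = the rest.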

These compounds were tested against OTU domain-containing protein 3 (Homo sapiens) (UniProt Q5T2D3) (assay: Validation of screening hits, potency titration, in vitro enzymatic, OTU domain-containing protein 3 DUB inhibitors (AID 1645868)). Conditions: purified OTUD3, ubiquitin-rhodamine cleavage fluorescence, 2 h.
Sequence of OTU domain-containing protein 3 (Homo sapiens) (Q5T2D3 whole entry, looked up, the tested form may be a part): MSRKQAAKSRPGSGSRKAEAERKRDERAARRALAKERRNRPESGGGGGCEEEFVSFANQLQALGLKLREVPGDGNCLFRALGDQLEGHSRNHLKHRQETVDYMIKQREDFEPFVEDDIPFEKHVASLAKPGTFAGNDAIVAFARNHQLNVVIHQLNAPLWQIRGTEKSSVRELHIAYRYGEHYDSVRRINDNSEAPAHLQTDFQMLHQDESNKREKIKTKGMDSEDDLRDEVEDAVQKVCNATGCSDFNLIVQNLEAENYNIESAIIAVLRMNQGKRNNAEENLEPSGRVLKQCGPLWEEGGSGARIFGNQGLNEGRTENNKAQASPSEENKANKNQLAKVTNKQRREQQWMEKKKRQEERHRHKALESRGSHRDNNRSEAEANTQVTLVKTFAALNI
In the case of `Cc1cc(C)c2cc(C(=O)NC3CCN(Cc4ccccc4)CC3)[nH]c2c1`, the IC50 is reported as 32.1 µM.
In the case of `COc1ccc(-c2cc3c(=O)n(CC(=O)NCCCN4CCCC4)ncn3n2)cc1`, the IC50 is reported as > 50 µM (inactive).
`Cc1ccc(NC(=O)Cn2c(Nc3cccc(C)c3)nc(C)cc2=O)cc1` was tested, and the IC50 was 31 µM.
`CS(=O)(=O)N1CCCc2cc(C(=O)Nc3ccc(Oc4ccccc4)cc3)ccc21` was tested, and the IC50 was > 50 µM (inactive).
With `CC1CCN(c2cc(-n3cnc(C(=O)N4CCCC(C)C4)c3)ncn2)CC1` (centres undefined) the IC50 was > 50 µM (inactive).
`O=C(Nc1ccc(-c2cn3ccsc3n2)cc1)c1ccc(Cl)c([N+](=O)[O-])c1` was tested, and the IC50 was 5.01 µM.
With `O=c1c2cnc(N3CCOCC3)nc2ccn1CCc1ccccc1` the IC50 was 28 µM.
For `O=C(Nc1ccc2nccnc2c1)c1cccc(C(F)(F)F)c1`, the IC50 was > 50 µM (inactive).
For `COc1ccccc1-c1ccc(CN2[C@@H](c3ccccc3)C[C@@H]3NC(=O)CCC[C@H]32)cc1`, the IC50 was > 50 µM (inactive).
In the case of `CN(C)c1ccc(/C=N/NC(=O)c2ccc(Cl)cc2)cc1`, the IC50 is reported as 24.1 µM.
With `COc1ccc(-n2ccn3c(CCC(=O)NCc4ccc(F)cc4)nnc3c2=O)cc1` the IC50 was 33.3 µM.
`COc1ccccc1NC(=O)Cn1cc(C(=O)c2ccc(C)cc2)c(=O)c2cc(Cl)ccc21` gave an IC50 of 23.9 µM.
For `COc1cccc(NC(=O)C2Cc3ccccc3N2C(=O)c2ccccc2)c1` (centres undefined), the IC50 was 20.1 µM.
For `CN1CC2CN(C(=O)Nc3cccnc3)CCN2Cc2ccccc21` (centres undefined), the IC50 was > 50 µM (inactive).
In the case of `COc1ccccc1C(=O)N1CCc2[nH]c3ccc(F)cc3c2C1`, the IC50 is reported as > 50 µM (inactive).
With `Cc1c(C)n(-c2ccccc2)c2ncn(CC(=O)N(C)Cc3ccccc3)c(=O)c12` the IC50 was > 50 µM (inactive).
With `COc1ccc(CCNC(=O)c2ccc3ccccc3c2)cc1OC` the IC50 was > 50 µM (inactive).
`COc1ccc(Cl)cc1N1C(=O)[C@H]2[C@@H](C1=O)[C@]1(C(=O)Nc3c(C)cc(C)cc31)N1CCC[C@@H]21` was tested, and the IC50 was > 50 µM (inactive).
For `Cc1ccc(Nc2nc(Nc3cccc(Cl)c3)nc3nccnc23)cc1`, the IC50 was > 50 µM (inactive).
In the case of `Cc1c(C)n(-c2ccccc2)c2ncn(CC(=O)NC(C)c3ccccc3)c(=O)c12` (centres undefined), the IC50 is reported as 21 µM.
`COc1ccc2c(C)c(CC(=O)N3CCC[C@H]3C(=O)O)c(=O)oc2c1C` was tested, and the IC50 was > 50 µM (inactive).
With `Cc1ccc(-n2c(=O)c3ccccc3n(Cc3c(F)cccc3Cl)c2=O)cc1` the IC50 was > 50 µM (inactive).
For `COc1ccc2cc1Oc1cc(ccc1OC)C(O)C13SSC4(C(=O)N1C)C(O)C1=COC=CC(OC2=O)C1N4C3=O` (centres undefined), the IC50 was > 50 µM (inactive).
For `O=C(OCc1ccc(F)cc1)c1ccc2ccccc2n1`, the IC50 was > 50 µM (inactive).
With `CC1CCN(c2nc(F)c3c(c2F)S(=O)(=O)CCN3Cc2cccnc2)CC1` the IC50 was > 50 µM (inactive).
`COc1ccc(-c2nc(Cn3nnc(C(=O)Nc4ccc(C)c(C)c4)c3N)c(C)o2)cc1` gave an IC50 of 3.46 µM.
For `Cc1cc(NC(=O)c2[nH]nc3c2CCc2ccccc2-3)no1`, the IC50 was 37.9 µM.
`CC1CCN(S(=O)(=O)c2ccc3[nH]cc(C(=O)NCc4ccco4)c(=O)c3c2)CC1` was tested, and the IC50 was > 50 µM (inactive).
With `O=S(=O)(c1cccc(F)c1)N1CCN(c2nnnn2-c2ccccc2)CC1` the IC50 was > 50 µM (inactive).
For `COc1cccc2cc(C(=O)Nc3nc(-c4ccncc4)cs3)oc12`, the IC50 was 1.51 µM.
`O=C(CCc1nnc2n(Cc3ccc(F)cc3)c(=O)c3ccccc3n12)N1CCN(c2ccccn2)CC1` was tested, and the IC50 was > 50 µM (inactive).
For `COc1cccc2c1NC(=O)C21CCN(C(=O)Nc2cccc3ccccc23)CC1`, the IC50 was > 50 µM (inactive).
`COc1ccc(OCC(=O)Nc2ccc(C)c(OCc3cc(=O)n4ccccc4n3)c2)cc1` was tested, and the IC50 was > 50 µM (inactive).
With `Cc1cc(SCc2ncon2)c(C)cc1Cl` the IC50 was > 50 µM (inactive).
`O=C(Nc1ccc2c(c1)OCCO2)c1cccc2nc3ccccc3nc12` showed an IC50 of 32.8 µM.
`CCOc1ccc(CCNC(=O)CCC(=O)Nc2ccc3nc(N4CCN(C)CC4)cc(C)c3c2)cc1OCC` was tested, and the IC50 was > 50 µM (inactive).
`CN1CCN(c2ncnc3c2oc2ccc(Cl)cc23)CC1` was tested, and the IC50 was > 50 µM (inactive).
`O=C(Nc1cccc(C(F)(F)F)c1)c1cc2c(s1)-c1ccccc1OC2` gave an IC50 of 15.2 µM.
In the case of `CCCOc1ccc(C(=O)Nc2ccc(S(=O)(=O)Nc3cc(C)nc(C)n3)cc2)cc1`, the IC50 is reported as > 50 µM (inactive).
`O=c1c(OC2O[C@H](CO)[C@H](O)[C@H](O)[C@H]2O)c(-c2ccc(O)cc2)oc2cc(O)cc(O)c12` (some centres undefined) gave an IC50 of 49.9 µM.
`COc1ccc(C)cc1NC(=O)C1CC(=O)Nc2nc(SCc3ccccc3)nn21` (centres undefined) was tested, and the IC50 was 16.9 µM.
With `Cc1cccc(CNC(=O)C2CCCN(S(=O)(=O)Cc3ccc(F)cc3)C2)c1` (centres undefined) the IC50 was 41.6 µM.
`CC(C)(C)c1ccc(-c2nnc3n2-c2ccccc2SC3)cc1` was tested, and the IC50 was > 50 µM (inactive).
For `COc1ccc(NC(=O)C2CCCN(S(=O)(=O)N3CCCCCC3)C2)cc1` (centres undefined), the IC50 was > 50 µM (inactive).
In the case of `CC(C)(C)C(=O)C1C2C(=O)N(c3ccc4c(c3)OCO4)C(=O)C2C2c3ccccc3C=CN12` (centres undefined), the IC50 is reported as > 50 µM (inactive).
`CCCCNC(=O)c1cc2cccnc2n(Cc2ccccc2)c1=O` was tested, and the IC50 was > 50 µM (inactive).
`CCOc1ccc(NC(=O)Cn2c(=O)n(CCC(=O)NCc3ccco3)c(=O)c3ccccc32)cc1` showed an IC50 of 11.6 µM.
`Cc1cc(C)cc(NC(=O)CN2C(=O)CC(c3ccccc3)Sc3ccccc32)c1` (centres undefined) was tested, and the IC50 was > 50 µM (inactive).
For `Cc1ccc(C(C)C)cc1OCCOCCN1CCNCC1`, the IC50 was > 50 µM (inactive).
`C/C=C\C1=CC(=O)[C@]23C[C@H]2[C@]2(C)CO[C@@]1(O)[C@@]3(O)O2` was tested, and the IC50 was > 50 µM (inactive).
In the case of `COc1ccc(NC(=O)c2nnn(-c3ccccc3)c2C)cc1OC`, the IC50 is reported as > 50 µM (inactive).
For `Cc1ccc2c(=O)c(C(=O)Nc3ccccc3)cn(CC(=O)NC3CCCCC3)c2n1`, the IC50 was > 50 µM (inactive).
In the case of `COc1ccc(C)cc1NC(=O)Cc1csc(NC(=O)c2ccc(=O)[nH]c2)n1`, the IC50 is reported as > 50 µM (inactive).
For `Cc1cc(Cl)ccc1Nc1nc(Nc2cccc(F)c2)nc2nccnc12`, the IC50 was > 50 µM (inactive).
Compound `O=C(Cn1nc2ccc(C(=O)NCc3ccccc3)cn2c1=O)Nc1ccc2c(c1)OCO2` has an IC50 of 38.4 µM.
For `CC1OC2CC(O)C1(O)C1=C2C(=O)c2c(O)c3c(c(O)c2C1=O)[C@H](C)O[C@H]1CC(=O)O[C@@H]31` (some centres undefined), the IC50 was > 50 µM (inactive).
`CCOc1ccccc1NC(=O)Cn1c(-c2ccc3c(c2)OCO3)cn(-c2ccc(OC)cc2)c1=O` was tested, and the IC50 was > 50 µM (inactive).
`CC(C)c1cc(NCc2ccccc2)n2nc(-c3cccnc3)nc2n1` gave an IC50 of 25.4 µM.
For `CC1CCN(S(=O)(=O)c2ccc(C(=O)Nc3ccc(S(N)(=O)=O)cc3)cc2)CC1`, the IC50 was > 50 µM (inactive).
For `COc1cccc(CC(=O)Nc2cc(F)c3nc(N4CCOCC4)ccc3c2)c1`, the IC50 was > 50 µM (inactive).
In the case of `Cc1nnc(NCc2cccnc2)c2c1nnn2Cc1ccccc1Cl`, the IC50 is reported as > 50 µM (inactive).
`COc1ccc(Cl)c(NC(=O)C2CC(=O)Nc3cc(-c4ccccc4)nn32)c1` (centres undefined) was tested, and the IC50 was 24.9 µM.
`COc1ccccc1CNC(=O)CCCCn1c(=O)c2ccccc2n(Cc2ccccc2C#N)c1=O` showed an IC50 of 16.9 µM.
In the case of `O=C(c1ccc2ncccc2c1)N1CCC2(C1)Nc1cccnc1NC2=NC1CCCC1` (centres undefined), the IC50 is reported as > 50 µM (inactive).
In the case of `O=C(CN1CCCc2ccccc21)Nc1ccc(N2CCOCC2)cc1`, the IC50 is reported as > 50 µM (inactive).
For `CC(NC(=O)c1ccccc1)c1nc2ccccc2n1CC(=O)Nc1ccc2c(c1)OCO2` (centres undefined), the IC50 was 3.53 µM.
Compound `COc1c(C)c(C(O)C(C)O)c2[nH]c3ccc(CC=C(C)C)cc3c2c1O` (centres undefined) has an IC50 of 25.6 µM.
With `O=S(=O)(Nc1ccc2oc(-c3ccncc3)nc2c1)c1ccccc1` the IC50 was > 50 µM (inactive).
In the case of `Nc1ccccc1SC(CC(=O)c1ccc(Cl)cc1)c1ccsc1` (centres undefined), the IC50 is reported as > 50 µM (inactive).
For `COc1cc2c(=O)n(CCC(=O)NCc3ccco3)c(=O)n(CC(=O)Nc3c(C)cccc3C)c2cc1OC`, the IC50 was > 50 µM (inactive).
`Cc1ccc(OC(=O)c2cn(-c3ccccc3)nc2-c2cccnc2)cc1` was tested, and the IC50 was > 50 µM (inactive).
In the case of `COc1cccc(CNC(=O)C2=Cc3cccc(OC)c3OC2)c1`, the IC50 is reported as > 50 µM (inactive).
`O=C(O)C1CCN(Cc2c(-c3ccco3)nc3ccc(Cl)cn23)CC1` was tested, and the IC50 was > 50 µM (inactive).
With `O=C(NCc1cccnc1)c1cnn2c(C(F)(F)F)cc(-c3ccc(F)cc3)nc12` the IC50 was > 50 µM (inactive).
In the case of `CCc1nc(-c2cccc(NC(=O)c3ccc(C#N)cc3F)c2)no1`, the IC50 is reported as > 50 µM (inactive).
`CCOc1ccc(-c2cc3nc(C4CCN(C(=O)OC(C)(C)C)CC4)c(C(=O)Nc4cc(F)ccc4F)cn3n2)cc1` was tested, and the IC50 was > 50 µM (inactive).
With `C=C1CCC2[C@](C)(CCC[C@]2(C)C(=O)OC)[C@H]1CCc1ccoc1C[N+](C)(C)Cc1ccccc1` (some centres undefined) the IC50 was > 50 µM (inactive).
`Cc1c(C(=O)Nc2ccc(-c3nnc4n3CCCCC4)cc2)oc2c1ccc1ccccc12` was tested, and the IC50 was > 50 µM (inactive).
In the case of `COc1ccc(-c2cc(N3CCC(NC(=O)c4ccccc4)C3)n[nH]2)cc1` (centres undefined), the IC50 is reported as 18.4 µM.
For `Cc1oc(-c2ccc(C(=O)NCC3COCCO3)cc2)nc1CN1CCc2ccccc21` (centres undefined), the IC50 was > 50 µM (inactive).
For `Cc1c(-c2ccc(C#N)cc2)oc2ccc(Br)cc2c1=O`, the IC50 was > 50 µM (inactive).
With `COc1cc2c(c(OCC(=O)Nc3ccc4c(c3)OCCO4)c1)C(=O)O[C@@H](C)CCCC(=O)CCCCC2` the IC50 was 48.5 µM.
`CCCc1nc2sc3c(NCc4ccco4)ncnc3c2c2c1CCC2` was tested, and the IC50 was > 50 µM (inactive).
With `CC(=O)[C@H]1c2c(c(O)c3c(O)cccc3c2-c2c3c(c(O)c4c(O)cccc24)C(=O)C[C@](C)(O)[C@H]3C(C)=O)C(=O)C[C@]1(C)O` the IC50 was > 50 µM (inactive).
`Nc1ccc(F)c(NS(=O)(=O)c2ccccc2)c1` was tested, and the IC50 was > 50 µM (inactive).
`CCOC(=O)c1ccc(NC(=O)COc2cccc3c2CCN(CC)C3=O)cc1` was tested, and the IC50 was > 50 µM (inactive).
`COc1ccc(NC(=O)C2CCN(c3cncnc3N(C)C)CC2)cc1OC` was tested, and the IC50 was > 50 µM (inactive).
With `Cc1nc(Nc2c3ccccc3nc3ccccc23)sc1C` the IC50 was > 50 µM (inactive).
For `Cc1cc(-n2c(C)cc(-c3csc(N)n3)c2C)no1`, the IC50 was > 50 µM (inactive).
In the case of `NS(=O)(=O)c1ccc(Cl)c(C(=O)OCc2csc(Nc3ccccc3)n2)c1`, the IC50 is reported as > 50 µM (inactive).
`CCOc1ccc(S(=O)(=O)Nc2ccc[nH]c2=O)cc1` was tested, and the IC50 was > 50 µM (inactive).
In the case of `COc1ccc(-c2cc3nc(C)cc(Nc4ccc(F)cc4)n3n2)cc1OC`, the IC50 is reported as > 50 µM (inactive).
For `COc1ccc(CNC(=O)CN2C(=O)C(C)=C(c3ccc(C)cc3)S2(=O)=O)cc1`, the IC50 was > 50 µM (inactive).
In the case of `Cc1ccccc1NC(=O)c1ccn(COc2ccc(Cl)cc2)n1`, the IC50 is reported as > 50 µM (inactive).
